We go through one compound from patent US9057054B2, “Antigen-specific long-term memory T-cells” (THE REGENTS OF THE UNIVERSITY OF MICHIGAN, priority 2009, dated 2015).

Molecules are shown by their SMILES.

In data set [1] the test system is P14 naive CD44loCD8+ T cells. The experiment in a line: In vitro priming of CFSE-labeled P14 naive CD8+ T cells with gp33-pulsed DCs, IL-2 and titrated rapamycin: cell counts, CFSE division, live cell ratio. The settings on record: day 8 after culture, 50 or 100 nM rapamycin. In kind it is cell-based, mouse.
Data set [2] relates to antigen-primed CD8+ T cells. The data set is described as follows: Secondary culture in the absence of IL-2 (IL-2 withdrawal), live cell ratio, with or without oligomycin. It is filed as cell-based, mouse.
Data set [3] relates to antigen-primed CD8+ T cells. The data set is described as follows: Oxygen consumption and lactate production assay, share of ATP from oxidative phosphorylation and glycolysis.

For `CO[C@H]1C[C@@H]2CC[C@@H](C)[C@@](O)(O2)C(=O)C(=O)N2CCCC[C@H]2C(=O)O[C@H]([C@H](C)C[C@@H]2CC[C@@H](O)[C@H](OC)C2)CC(=O)[C@H](C)/C=C(\C)[C@@H](O)[C@@H](OC)C(=O)[C@H](C)C[C@H](C)/C=C/C=C/C=C/1C` [rapamycin], the dead cells result in data set [1] is listed as “less than 5%”. Moreover, the “viable cells after IL-2 withdrawal” value in data set [2] (by 24 hours after IL-2 withdrawal) was “Approximately 100%”. Further, in data set [2] (by 74 hours after withdrawal), the “cells remaining lived after IL-2 withdrawal” value was “more than 60%”. The “oxygen consumption increase versus IL-2 CD8+ T cells” value in data set [3] (cells collected 6 days after culture) worked out at 2 fold. Further, the “ATP derived from oxidative phosphorylation metabolism” value in data set [3] (share of total ATP generation) is given as “more than 90%”.
